Reference: patent US7432283B2, “Heterocyclic GABAA subtype selective receptor modulators” (Roche Palo Alto LLC, priority 2004, dated 2008)

Legend:
[1] = target: T1, GABAA α2β3γ2 (Homo sapiens, UniProt P18507+P28472+P47869); assay: 35S-TBPS binding assay, GABAA α2β3γ2; conditions: 35S-TBPS (5 nM) competition, GABA 1 μM, HEK293 cell membranes, 2 hours at room temperature; for IC50: read-out: pIC50 α2β3γ2 (converted)
T1 construct: expressed in transfected cells; host or cells: HEK293
Description: (§1) The binding assay is based on the assay reported by K. Gee et al., Eur. J. Pharmacol. 1987 136:419-423.
(§2) Homogenate preparation: Membrane preparations of HEK293 cells containing either GABAA α1β2γ2 or GABAA α2β3γ2 constructs were performed according to a modified procedure previously described by Gee et al. (supra). Whole HEK 293 cells in D-PBS (calcium/magnesium free) buffer adjusted to pH 7.4 were centrifuged at 7,280×g for 20 m. After discarding the supernatant, the pellet was resuspended in the buffer and centrifuged at 1,820×g for 10 m. Afterwards, the supernatant was discarded and the pellet resuspended in ice-cold preparation buffer (50 mM Tris HCl pH 7.4, 4° C. and 150 mM KCl), homogenized for 30 sec using a Brinkmann Polytron PT3000 (setting 6) and centrifuged at 48,000×g for 30 m at 4° C. The centrifugation and homogenization procedure was repeated two more times for a total of 3 times before resuspending the membranes at a final protein concentration of 0.5 mg/mL. Aliquots (30 mL) of the final membrane preparation were then centrifuged at 48,000×g for 30 m, and the resulting pellets were stored at −80° C. until required.
(§3) 35S-TBPS binding assay. Membrane pellets containing either GABAA α1β2γ2 or GABAA α2β3γ2 constructs were thawed on ice, resuspended in 10 mL of 50 mM Tris HCl pH 7.4, 4° C. and 150 mM KCl and centrifuged at 48,000×g, 30 m at 4° C. After discarding the supernatant, the pellet was resuspended in 30 mL incubation buffer (50 mM Tris HCl pH 7.4, 25° C. and 150 mM KCl) at approximately 0.5 mg/mL protein concentration. In ^35S-TBPS competition studies, HEK293 membranes were incubated with ^35S-TBPS (5 nM final) and GABA (1 μM) in the absence or presence of competitor at concentrations ranging from 0.01 nM to 10 μM in 125 μL incubation buffer for 2 hours at room temperature (˜22° C.). Non-specific binding was assayed with picrotoxin (100 μM final concentration). […] Measurement of bound radioactivity was performed using a Packard Microplate 96 well topcount scintillation counter. […]

[2] = target: T2, GABAA α1β2γ2 (Homo sapiens, UniProt P14867+P18507+P47870); assay: 35S-TBPS binding assay, GABAA α1β2γ2; conditions: 35S-TBPS (5 nM) competition, GABA 1 μM, HEK293 cell membranes, 2 hours at room temperature; for IC50: read-out: pIC50 α1β2γ2 (converted)
T2 construct: expressed in transfected cells; host or cells: HEK293
T2 sequence (P14867 28-456): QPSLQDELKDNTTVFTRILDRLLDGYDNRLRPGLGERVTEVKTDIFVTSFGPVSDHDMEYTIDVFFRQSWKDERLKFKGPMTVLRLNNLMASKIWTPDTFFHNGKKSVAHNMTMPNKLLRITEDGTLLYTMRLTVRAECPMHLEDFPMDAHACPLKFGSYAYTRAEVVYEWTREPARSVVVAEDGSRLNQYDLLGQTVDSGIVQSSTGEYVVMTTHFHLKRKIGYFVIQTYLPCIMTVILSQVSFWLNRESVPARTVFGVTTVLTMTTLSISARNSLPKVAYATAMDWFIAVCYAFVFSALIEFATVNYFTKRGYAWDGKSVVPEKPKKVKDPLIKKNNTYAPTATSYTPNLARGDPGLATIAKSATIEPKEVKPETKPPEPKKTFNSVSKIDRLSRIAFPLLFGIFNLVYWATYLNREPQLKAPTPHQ
T2 sequence (P47870 25-512 limits assumed): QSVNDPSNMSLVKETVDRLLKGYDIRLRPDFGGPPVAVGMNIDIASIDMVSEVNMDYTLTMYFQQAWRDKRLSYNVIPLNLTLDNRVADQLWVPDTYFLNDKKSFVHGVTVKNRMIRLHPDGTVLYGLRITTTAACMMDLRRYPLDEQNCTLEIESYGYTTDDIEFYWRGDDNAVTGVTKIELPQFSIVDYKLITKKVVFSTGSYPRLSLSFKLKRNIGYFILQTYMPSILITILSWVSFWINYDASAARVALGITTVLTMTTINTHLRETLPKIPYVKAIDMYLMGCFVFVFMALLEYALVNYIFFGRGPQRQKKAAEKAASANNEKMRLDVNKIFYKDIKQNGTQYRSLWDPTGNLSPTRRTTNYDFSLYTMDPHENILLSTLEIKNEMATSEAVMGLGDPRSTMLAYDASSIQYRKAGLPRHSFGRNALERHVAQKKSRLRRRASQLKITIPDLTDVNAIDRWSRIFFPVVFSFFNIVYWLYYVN
T2 sequence (P18507 40-475): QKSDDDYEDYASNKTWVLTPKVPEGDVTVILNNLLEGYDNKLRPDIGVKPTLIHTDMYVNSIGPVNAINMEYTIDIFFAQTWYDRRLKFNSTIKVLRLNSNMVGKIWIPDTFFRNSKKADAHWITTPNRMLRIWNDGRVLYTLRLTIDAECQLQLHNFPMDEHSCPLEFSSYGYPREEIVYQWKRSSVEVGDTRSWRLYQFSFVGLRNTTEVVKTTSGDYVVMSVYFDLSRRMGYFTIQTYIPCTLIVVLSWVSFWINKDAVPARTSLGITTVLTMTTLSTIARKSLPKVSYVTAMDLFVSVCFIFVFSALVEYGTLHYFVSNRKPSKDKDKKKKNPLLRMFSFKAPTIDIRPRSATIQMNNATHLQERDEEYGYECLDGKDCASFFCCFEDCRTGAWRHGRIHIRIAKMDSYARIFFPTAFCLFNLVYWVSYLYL
Description: as §1, §2, §3

T1 sequence (P47869 29-451): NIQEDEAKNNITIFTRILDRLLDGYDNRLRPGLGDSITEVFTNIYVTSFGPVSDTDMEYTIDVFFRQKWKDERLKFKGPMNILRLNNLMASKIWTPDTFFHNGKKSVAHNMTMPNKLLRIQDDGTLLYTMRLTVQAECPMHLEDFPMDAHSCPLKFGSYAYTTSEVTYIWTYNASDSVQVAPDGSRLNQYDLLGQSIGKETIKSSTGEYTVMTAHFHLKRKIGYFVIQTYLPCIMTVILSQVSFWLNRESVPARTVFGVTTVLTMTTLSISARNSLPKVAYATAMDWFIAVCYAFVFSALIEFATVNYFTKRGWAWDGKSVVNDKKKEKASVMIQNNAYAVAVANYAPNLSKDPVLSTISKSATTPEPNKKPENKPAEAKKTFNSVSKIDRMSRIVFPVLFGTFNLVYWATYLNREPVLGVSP
T1 sequence (P28472 26-473): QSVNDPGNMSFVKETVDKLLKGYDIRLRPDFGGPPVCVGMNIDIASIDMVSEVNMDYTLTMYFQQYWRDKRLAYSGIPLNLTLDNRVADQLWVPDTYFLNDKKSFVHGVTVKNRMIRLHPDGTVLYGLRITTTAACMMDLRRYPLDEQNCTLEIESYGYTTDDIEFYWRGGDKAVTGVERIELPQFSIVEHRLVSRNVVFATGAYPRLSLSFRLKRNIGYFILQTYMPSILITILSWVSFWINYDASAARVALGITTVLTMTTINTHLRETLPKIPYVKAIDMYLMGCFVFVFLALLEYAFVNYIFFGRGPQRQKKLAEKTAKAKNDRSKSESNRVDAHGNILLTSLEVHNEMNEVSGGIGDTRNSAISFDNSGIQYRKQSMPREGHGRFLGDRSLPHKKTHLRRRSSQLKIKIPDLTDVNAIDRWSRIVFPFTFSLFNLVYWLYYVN
T1 sequence (P18507 40-475): as the sequence (P18507 40-475) above

Compound	melting point [°C]	further results
7-(2,4-Dichloro-phenyl)-3-ethynyl-2-methyl-4,5,6,7-tetrahydro-2H-|pyrazolo[3,4-b]pyridine [Compound 3-10]	–	pIC50 α2β3γ2 [1]: 6.883; pIC50 α1β2γ2 [2]: 5.423
Cn1nc2c(c1Cl)CCCN2c1ccc(Cl)cc1Cl [Compound 1-9, 3-chloro-7-(2,4-dichloro-phenyl)-2-methyl-4,5,6,7-tetrahydro-2H-pyrazolo [3,4-b]pyridine]	94.5 to 95.5	IC50 [1]: 96.4 nM; IC50 [2]: 1200 nM
Cc1c2c(nn1C)N(c1ccc(Cl)cc1Cl)CCC2 [Compound 2-17, 7-(2,4-Dichloro-phenyl)-2,3-dimethyl-4,5,6,7-tetrahydro-2H-pyrazolo[3,4-b]pyridine]	66.6 to 76.6	IC50 [1]: 105 nM; IC50 [2]: 2840 nM
Cc1cc(C)c(N2CCCc3c2nn(C)c3-c2ccccc2C(F)(F)F)c(C)c1 [Compound 9-1, 2-Methyl-3-(2-trifluoromethyl-phenyl)-7-(2,4,6-trimethyl-phenyl)-4,5,6,7-tetrahydro-2H-pyrazolo[3,4-b]pyridine]	59 to 63	–
Cn1nc2c(c1-c1cncnc1)CCCN2c1ccc(Cl)cc1Cl [Compound 9-2, 7-(2,4-Dichloro-phenyl)-2-methyl-3-pyrimidin-5-yl-4,5,6,7-tetrahydro-2H-pyrazolo[3,4-b]pyridine]	164.2 to 166.8	–
Cn1nc2c(c1-c1ccncc1)CCCN2c1ccc(Cl)cc1Cl [Compound 9-3, 7-(2,4-Dichloro-phenyl)-2-methyl-3-pyridin-4-yl-4,5,6,7-tetrahydro-2H-pyrazolo[3,4-b]pyridine]	123.5 to 125.5	–
Cc1cc(C)c(N2C(=O)CCc3c2nn(C)c3Br)c(C)c1 [Compound 9-4, 3-Bromo-2-methyl-7-(2,4,6-trimethyl-phenyl)-2,4,5,7-tetrahydro-pyrazolo[3,4-b]pyridin-6-one]	256.8 to 258	–
Cc1cc(C)c(N2CCOc3cn(C)nc32)c(C)c1 [Compound 9-5, 2-Methyl-7-(2,4,6-trimethyl-phenyl)-2,5,6,7-tetrahydro-pyrazolo[4,3-b][1,4]oxazine]	103.6 to 104.8	–
COc1cccc(OC)c1-c1c2c(nn1C)N(c1c(C)cc(C)cc1C)CCC2 [Compound 9-6, 3-(2,6-Dimethoxy-phenyl)-2-methyl-7-(2,4,6-trimethyl-phenyl)-4,5,6,7-tetrahydro-2H-pyrazolo[3,5-b]pyridine]	169.9 to 172.8	–
